Laboratory results as given in patent publication US9084828B2, “Oligomer-protein tyrosine kinase inhibitor conjugates” (Nektar Therapeutics, priority 2009, dated 2015).

How the values were obtained:
Assay type in all cases: biochemical
PDGFR_beta = PDGFR_beta (Homo sapiens, UniProt P09619); experiment: Activity against various protein tyrosine kinases: PDGFR_beta
TSSK2 = biological target: T1, TSSK2 (Homo sapiens, UniProt Q96PF2); experiment: Activity against various protein tyrosine kinases: TSSK2
T1 sequence (Q96PF2 1-358): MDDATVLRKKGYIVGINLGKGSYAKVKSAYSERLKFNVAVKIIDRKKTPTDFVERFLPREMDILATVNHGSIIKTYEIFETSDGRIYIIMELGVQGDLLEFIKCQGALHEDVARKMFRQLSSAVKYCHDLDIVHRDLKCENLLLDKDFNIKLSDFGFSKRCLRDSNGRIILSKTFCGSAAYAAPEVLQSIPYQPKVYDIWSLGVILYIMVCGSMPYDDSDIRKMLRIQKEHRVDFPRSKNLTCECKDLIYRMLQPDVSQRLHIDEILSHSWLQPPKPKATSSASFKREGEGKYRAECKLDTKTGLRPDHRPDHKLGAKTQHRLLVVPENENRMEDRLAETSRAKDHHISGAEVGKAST

Flt3(D835Y) = biological target: T2, Flt3(D835Y) (Homo sapiens, UniProt P36888, D835Y); experiment: Activity against various protein tyrosine kinases: Flt3(D835Y)
T2 sequence (P36888 27-993 D835Y): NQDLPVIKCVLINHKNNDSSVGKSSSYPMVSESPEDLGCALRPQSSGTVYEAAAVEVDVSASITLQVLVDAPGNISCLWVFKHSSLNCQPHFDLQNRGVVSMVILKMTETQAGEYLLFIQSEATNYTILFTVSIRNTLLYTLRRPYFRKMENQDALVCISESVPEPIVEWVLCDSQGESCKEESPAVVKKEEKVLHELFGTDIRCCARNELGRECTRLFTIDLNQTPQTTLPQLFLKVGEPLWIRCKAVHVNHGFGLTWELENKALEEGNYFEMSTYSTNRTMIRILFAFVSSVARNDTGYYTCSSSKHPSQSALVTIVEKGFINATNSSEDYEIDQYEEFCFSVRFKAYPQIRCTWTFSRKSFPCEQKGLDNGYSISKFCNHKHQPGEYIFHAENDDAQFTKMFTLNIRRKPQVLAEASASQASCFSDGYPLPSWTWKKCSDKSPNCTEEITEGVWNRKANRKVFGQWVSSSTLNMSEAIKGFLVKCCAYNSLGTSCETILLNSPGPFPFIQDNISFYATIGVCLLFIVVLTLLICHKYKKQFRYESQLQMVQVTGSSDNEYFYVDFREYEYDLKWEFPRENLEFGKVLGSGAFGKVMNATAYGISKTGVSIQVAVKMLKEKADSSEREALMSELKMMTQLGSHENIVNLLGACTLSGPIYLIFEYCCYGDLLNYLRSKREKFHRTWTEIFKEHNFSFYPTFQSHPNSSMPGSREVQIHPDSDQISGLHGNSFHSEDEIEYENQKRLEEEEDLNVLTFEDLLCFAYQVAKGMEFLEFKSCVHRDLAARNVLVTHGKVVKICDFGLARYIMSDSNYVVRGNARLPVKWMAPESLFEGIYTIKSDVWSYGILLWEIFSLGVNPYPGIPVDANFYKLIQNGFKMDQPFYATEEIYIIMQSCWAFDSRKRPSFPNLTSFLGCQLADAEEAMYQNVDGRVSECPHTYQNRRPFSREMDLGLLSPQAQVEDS
Description: (§1) Using techniques know those of ordinary skill in the art, compounds were tested for activity against various protein tyrosine kinases.

FGFR4 = FGFR4 (Homo sapiens, UniProt P22455); experiment: Activity against various protein tyrosine kinases: FGFR4
YES = YES (Homo sapiens, UniProt P07947); experiment: Activity against various protein tyrosine kinases: YES
CHK1 = biological target: T3, CHK1 (Homo sapiens, UniProt O14757); experiment: Activity against various protein tyrosine kinases: CHK1
T3 sequence (O14757 1-476): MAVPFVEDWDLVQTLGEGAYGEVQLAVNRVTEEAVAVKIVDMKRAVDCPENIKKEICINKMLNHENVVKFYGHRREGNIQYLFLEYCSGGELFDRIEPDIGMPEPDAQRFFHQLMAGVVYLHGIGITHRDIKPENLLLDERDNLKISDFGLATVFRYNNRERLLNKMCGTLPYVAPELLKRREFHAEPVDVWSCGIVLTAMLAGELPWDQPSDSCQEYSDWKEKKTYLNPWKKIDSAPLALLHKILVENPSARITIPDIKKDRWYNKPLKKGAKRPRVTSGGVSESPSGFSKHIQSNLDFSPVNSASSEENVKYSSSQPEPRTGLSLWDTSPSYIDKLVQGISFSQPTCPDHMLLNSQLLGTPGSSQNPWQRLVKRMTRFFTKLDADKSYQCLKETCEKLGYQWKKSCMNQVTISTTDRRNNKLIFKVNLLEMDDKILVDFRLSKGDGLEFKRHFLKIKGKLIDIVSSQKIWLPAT

INSR = INSR (Homo sapiens, UniProt P06213); experiment: Activity against various protein tyrosine kinases: INSR
PKA = PKA (Homo sapiens, UniProt P17612); experiment: Activity against various protein tyrosine kinases: PKA
Erk1 = Erk1 (Homo sapiens, UniProt P27361); experiment: Activity against various protein tyrosine kinases: Erk1
FGFR1 = FGFR1 (Homo sapiens, UniProt P11362); experiment: Activity against various protein tyrosine kinases: FGFR1
Description: as §1

AKT1 = AKT1 (Homo sapiens, UniProt P31749); experiment: Activity against various protein tyrosine kinases: AKT1
p38a = p38a (Homo sapiens, UniProt Q16539); experiment: Activity against various protein tyrosine kinases: p38a
EPHA2 = EPHA2 (Homo sapiens, UniProt P29317); experiment: Activity against various protein tyrosine kinases: EPHA2
ABL(T315I) = ABL(T315I) (Homo sapiens, UniProt P00519, T315I); experiment: Activity against various protein tyrosine kinases: ABL(T315I)
Description: as §1

Sequence of AKT1 (P31749 whole entry, species assumed): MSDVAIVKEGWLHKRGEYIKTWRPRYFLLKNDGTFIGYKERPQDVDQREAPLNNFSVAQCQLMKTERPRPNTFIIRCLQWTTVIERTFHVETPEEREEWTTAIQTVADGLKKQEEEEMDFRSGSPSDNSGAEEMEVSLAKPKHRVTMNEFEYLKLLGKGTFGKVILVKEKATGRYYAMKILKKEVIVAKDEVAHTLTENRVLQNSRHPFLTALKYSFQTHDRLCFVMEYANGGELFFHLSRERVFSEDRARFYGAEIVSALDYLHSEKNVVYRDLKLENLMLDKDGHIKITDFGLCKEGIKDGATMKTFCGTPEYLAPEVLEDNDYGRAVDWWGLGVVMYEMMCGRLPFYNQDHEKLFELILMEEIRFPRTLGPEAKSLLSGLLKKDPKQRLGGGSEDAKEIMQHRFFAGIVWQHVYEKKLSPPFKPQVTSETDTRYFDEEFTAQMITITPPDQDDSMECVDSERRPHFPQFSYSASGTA
Sequence of PDGFR_beta (P09619 33-1106, species assumed): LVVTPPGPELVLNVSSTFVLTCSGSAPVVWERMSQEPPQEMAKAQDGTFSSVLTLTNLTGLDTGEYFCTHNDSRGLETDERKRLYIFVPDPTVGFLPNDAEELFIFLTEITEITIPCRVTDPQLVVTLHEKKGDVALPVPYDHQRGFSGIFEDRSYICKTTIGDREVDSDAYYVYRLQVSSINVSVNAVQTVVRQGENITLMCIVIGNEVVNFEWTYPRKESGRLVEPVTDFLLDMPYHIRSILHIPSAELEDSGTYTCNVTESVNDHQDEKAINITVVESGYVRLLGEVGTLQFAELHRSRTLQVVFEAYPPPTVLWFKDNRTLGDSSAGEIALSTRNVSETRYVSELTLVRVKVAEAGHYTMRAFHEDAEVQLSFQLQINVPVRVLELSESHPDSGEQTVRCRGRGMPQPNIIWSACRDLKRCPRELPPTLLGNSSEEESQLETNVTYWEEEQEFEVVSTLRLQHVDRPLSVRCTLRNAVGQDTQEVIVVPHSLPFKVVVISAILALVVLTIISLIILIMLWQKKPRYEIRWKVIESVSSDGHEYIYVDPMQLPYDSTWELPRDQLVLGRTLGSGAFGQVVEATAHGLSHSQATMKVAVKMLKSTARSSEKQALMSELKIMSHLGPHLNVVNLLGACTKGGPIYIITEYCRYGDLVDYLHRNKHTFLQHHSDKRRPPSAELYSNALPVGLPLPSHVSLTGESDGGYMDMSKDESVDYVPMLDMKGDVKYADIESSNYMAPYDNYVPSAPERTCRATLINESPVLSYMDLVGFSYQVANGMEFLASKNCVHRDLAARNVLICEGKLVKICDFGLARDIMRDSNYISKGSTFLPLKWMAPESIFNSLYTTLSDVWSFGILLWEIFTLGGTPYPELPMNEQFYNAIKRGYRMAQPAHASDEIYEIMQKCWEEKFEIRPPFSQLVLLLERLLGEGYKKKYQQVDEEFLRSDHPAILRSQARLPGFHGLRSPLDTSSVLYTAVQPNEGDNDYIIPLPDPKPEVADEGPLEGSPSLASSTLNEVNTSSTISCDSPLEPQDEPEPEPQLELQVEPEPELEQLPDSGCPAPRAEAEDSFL
Sequence of YES (P07947 whole entry, species assumed): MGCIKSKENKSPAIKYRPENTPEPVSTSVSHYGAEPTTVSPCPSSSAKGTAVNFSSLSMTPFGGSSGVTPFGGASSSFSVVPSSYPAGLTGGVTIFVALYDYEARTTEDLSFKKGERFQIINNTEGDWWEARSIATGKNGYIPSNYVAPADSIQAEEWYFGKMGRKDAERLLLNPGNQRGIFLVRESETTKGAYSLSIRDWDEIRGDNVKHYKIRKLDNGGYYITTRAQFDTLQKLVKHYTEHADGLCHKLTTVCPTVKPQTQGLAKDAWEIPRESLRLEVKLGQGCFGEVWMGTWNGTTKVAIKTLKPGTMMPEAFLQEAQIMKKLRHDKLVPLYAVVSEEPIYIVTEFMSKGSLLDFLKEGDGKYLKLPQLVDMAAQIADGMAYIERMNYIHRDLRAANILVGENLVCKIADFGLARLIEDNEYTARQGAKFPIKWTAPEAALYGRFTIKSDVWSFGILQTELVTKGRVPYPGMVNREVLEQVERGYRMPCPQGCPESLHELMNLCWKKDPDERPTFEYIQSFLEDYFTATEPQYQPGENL
Sequence of Erk1 (P27361 whole entry, species assumed): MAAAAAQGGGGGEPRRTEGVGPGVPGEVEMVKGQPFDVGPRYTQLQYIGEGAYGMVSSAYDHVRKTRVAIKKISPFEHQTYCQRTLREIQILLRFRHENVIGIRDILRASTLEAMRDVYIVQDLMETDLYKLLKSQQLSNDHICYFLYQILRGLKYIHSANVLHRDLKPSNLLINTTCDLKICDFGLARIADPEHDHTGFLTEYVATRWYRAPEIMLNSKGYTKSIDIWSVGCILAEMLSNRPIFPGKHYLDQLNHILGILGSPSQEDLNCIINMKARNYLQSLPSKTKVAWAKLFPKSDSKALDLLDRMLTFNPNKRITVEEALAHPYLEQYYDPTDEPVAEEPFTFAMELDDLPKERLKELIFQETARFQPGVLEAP
Sequence of FGFR1 (P11362 22-822, species assumed): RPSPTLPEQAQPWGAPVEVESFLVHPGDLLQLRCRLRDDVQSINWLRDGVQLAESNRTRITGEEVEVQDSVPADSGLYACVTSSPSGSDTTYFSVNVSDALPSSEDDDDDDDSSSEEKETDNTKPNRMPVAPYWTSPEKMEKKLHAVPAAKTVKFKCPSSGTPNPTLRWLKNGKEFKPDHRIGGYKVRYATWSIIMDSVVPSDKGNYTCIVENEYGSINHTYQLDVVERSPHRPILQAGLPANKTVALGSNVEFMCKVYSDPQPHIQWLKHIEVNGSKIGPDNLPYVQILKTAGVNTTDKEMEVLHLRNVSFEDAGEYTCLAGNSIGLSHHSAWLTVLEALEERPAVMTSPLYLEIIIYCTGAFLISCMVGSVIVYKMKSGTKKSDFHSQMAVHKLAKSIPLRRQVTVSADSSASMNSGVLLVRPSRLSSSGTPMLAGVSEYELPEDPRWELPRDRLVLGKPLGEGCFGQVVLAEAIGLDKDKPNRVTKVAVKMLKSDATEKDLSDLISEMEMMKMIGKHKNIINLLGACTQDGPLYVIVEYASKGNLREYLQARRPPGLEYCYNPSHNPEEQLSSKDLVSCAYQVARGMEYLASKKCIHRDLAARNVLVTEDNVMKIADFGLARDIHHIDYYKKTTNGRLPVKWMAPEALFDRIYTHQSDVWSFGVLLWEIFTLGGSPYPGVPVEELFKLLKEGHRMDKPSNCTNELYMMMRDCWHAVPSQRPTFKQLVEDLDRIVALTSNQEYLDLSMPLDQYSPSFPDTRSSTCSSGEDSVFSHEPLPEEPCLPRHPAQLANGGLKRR
Sequence of INSR (P06213 28-1382, species assumed): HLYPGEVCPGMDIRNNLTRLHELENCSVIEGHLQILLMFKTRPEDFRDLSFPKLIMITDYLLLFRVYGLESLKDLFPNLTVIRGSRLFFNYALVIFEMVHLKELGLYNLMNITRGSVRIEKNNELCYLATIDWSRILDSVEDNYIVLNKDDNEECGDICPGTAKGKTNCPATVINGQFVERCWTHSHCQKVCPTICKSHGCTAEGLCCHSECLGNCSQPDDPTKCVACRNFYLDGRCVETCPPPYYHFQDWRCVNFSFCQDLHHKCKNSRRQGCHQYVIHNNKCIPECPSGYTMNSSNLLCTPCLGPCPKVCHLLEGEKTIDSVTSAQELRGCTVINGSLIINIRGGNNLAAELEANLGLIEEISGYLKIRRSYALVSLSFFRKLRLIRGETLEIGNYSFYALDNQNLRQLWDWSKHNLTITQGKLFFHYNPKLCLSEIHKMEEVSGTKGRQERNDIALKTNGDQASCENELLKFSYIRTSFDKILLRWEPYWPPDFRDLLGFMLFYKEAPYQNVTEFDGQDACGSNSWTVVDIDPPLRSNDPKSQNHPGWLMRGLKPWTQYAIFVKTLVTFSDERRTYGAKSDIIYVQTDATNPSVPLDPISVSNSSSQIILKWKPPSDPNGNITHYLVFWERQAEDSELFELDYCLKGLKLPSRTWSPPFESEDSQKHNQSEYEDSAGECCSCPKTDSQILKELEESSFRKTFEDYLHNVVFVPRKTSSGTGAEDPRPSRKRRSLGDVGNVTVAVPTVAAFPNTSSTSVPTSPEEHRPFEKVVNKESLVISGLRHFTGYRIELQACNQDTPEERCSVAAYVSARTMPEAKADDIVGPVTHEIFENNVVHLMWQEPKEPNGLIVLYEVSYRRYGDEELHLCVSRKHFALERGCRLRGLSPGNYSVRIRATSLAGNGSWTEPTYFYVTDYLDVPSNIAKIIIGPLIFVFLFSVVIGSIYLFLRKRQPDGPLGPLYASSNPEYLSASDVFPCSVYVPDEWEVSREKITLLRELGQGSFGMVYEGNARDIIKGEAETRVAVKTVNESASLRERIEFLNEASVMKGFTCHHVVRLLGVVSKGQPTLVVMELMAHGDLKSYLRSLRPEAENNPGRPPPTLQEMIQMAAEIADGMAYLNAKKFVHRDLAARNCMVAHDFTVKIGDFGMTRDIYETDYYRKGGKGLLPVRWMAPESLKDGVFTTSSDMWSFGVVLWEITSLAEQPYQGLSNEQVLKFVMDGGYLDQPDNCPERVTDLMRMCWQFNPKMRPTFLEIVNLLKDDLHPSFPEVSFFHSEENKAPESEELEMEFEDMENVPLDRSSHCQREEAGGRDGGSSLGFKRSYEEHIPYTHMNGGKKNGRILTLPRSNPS
Sequence of p38a (Q16539 whole entry): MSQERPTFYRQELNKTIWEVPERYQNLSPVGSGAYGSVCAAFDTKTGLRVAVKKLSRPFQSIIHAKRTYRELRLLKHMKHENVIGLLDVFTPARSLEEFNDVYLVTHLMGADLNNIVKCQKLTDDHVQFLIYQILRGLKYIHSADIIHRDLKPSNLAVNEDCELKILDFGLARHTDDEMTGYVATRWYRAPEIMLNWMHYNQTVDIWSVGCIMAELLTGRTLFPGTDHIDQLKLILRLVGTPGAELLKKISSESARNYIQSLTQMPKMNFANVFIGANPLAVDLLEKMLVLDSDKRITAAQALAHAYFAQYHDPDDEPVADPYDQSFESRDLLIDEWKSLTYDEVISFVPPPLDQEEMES

Compound	% Inhibition at 10 nM (PDGFR_beta) [%]	% Inhibition at 1 μM (PDGFR_beta) [%]	% Inhibition at 10 nM (TSSK2) [%]	% Inhibition at 1 μM (TSSK2) [%]	% Inhibition at 10 nM (Flt3(D835Y)) [%]	% Inhibition at 1 μM (Flt3(D835Y)) [%]	% Inhibition at 10 nM (FGFR4) [%]	% Inhibition at 1 μM (FGFR4) [%]	% Inhibition at 10 nM (YES) [%]	% Inhibition at 1 μM (YES) [%]	% Inhibition at 10 nM (CHK1) [%]	% Inhibition at 1 μM (CHK1) [%]	% Inhibition at 10 nM (INSR) [%]	% Inhibition at 1 μM (INSR) [%]	% Inhibition at 10 nM (PKA) [%]	% Inhibition at 1 μM (PKA) [%]	% Inhibition at 10 nM (Erk1) [%]	% Inhibition at 1 μM (Erk1) [%]	% Inhibition at 10 nM (FGFR1) [%]	% Inhibition at 1 μM (FGFR1) [%]	further results
COCCOCCOCCNC(=O)OCCN1CCN(c2cc(Nc3ncc(C(=O)Nc4c(C)cccc4Cl)s3)nc(C)n2)CC1 [mPEG3-NHCOO-Dasatinib]	48	99	−1	0	6	10	3	6	100	100	−2	0	1	−1	3	0	3	2	11	−3	% Inhibition at 10 nM (AKT1): 7%; % Inhibition at 1 μM (AKT1): 0%; % Inhibition at 10 nM (p38a): 6%; % Inhibition at 1 μM (p38a): 81%; % Inhibition at 10 nM (EPHA2): 40%; % Inhibition at 1 μM (EPHA2): 100%; % Inhibition at 10 nM (ABL(T315I)): 1%; % Inhibition at 1 μM (ABL(T315I)): 36%
COCCOCCOCCOCCOCCOCCOCCNC(=O)OCCN1CCN(c2cc(Nc3ncc(C(=O)Nc4c(C)cccc4Cl)s3)nc(C)n2)CC1 [mPEG7-NHCOO-Dasatinib]	60	100	3	−2	3	7	0	2	100	102	10	8	2	3	0	2	3	4	2	3	% Inhibition at 10 nM (AKT1): −1%; % Inhibition at 1 μM (AKT1): 0%; % Inhibition at 10 nM (p38a): 5%; % Inhibition at 1 μM (p38a): 74%; % Inhibition at 10 nM (EPHA2): 36%; % Inhibition at 1 μM (EPHA2): 101%; % Inhibition at 10 nM (ABL(T315I)): 4%; % Inhibition at 1 μM (ABL(T315I)): 26%
